Assay results from US8883841B2, “Oncogenic ras-specific cytotoxic compound and methods of use thereof” (The Board of Regents of the University of Texas System, priority 2005, dated 2014).
Like-named read-outs stand apart in the source and are kept apart here.

Key:
Icmt−/− MEF = assay: Icmt-dependent growth inhibition, Icmt−/− MEF; assay type: cell-based, mouse; settings: up to 100 μM
Text: Oncrasin and Oncrasin Analogs. Chemically, Oncrasin-1 has the same core structure as indole-3-carbinol, a naturally occurring constituent of many plant foods that has been tested for the prevention and treatment of cancer (Brignall, 2001; Kelloff et al., 1996; Chinni et al., 2001). Oncrasin-1 also has structural similarity to sulindac (Taylor et al., 2000; Sun et al., 2002) and lonidamine (Ravagnan et al., 1999; Papaldo et al., 2003), both of which have been evaluated preclinically and clinically for treatment of cancers. […] Oncrasin compounds also bear a indole core structure as the small-molecule inhibitor of isoprenylcysteine carboxylmethyltransferase (Icmt), 2-[5-(3-methylphenyl)-1-octyl-1H-indol-3-yl]acetamide (cysmethynil), which also induces antitumor activity in Ras gene mutant cancer cells (Winter-Vann et al., 2005). […] Both wild-type MEF and Icmt−/− MEF (Bergo et al., 2004) (kindly provided by Dr. S G Young at the University of California, San Francisco) were resistant to Oncrasin-1.

[1] = at 33 μM (the highest concentration tested)
[2] = at any of the doses tested (dose response)
[3] = up to 100 μM, the highest concentration tested

Structure (SMILES): O=Cc1cn(Cc2ccc(Cl)cc2)c2ccccc12 [Oncrasin K001, 1H-Indole-3-carboxaldehyde, 1-[(4-chlorophenyl)methyl]-(9CI)]
- growth inhibition, Icmt−/− MEF (Icmt−/− MEF): resistant
- toxicity to T29 cells (T29 cells; [1]): not toxic
- toxicity to T29 cells (T29 cells; [2]): not toxic
- cytotoxicity in T29 cells (T29 cells; [3]): no detectable cytotoxicity
- toxicity to T29H cells (T29Ht1 cells; [1]): not toxic
- toxicity to T29Ht1 (T29H) cells (T29Ht1 cells; [2]): not toxic
- cytotoxicity in T29Ht1 cells (T29Ht1 cells; [3]): no detectable cytotoxicity
